Results as given in publication PMC7843569, “Metagenomic identification, purification and characterisation of the Bifidobacterium adolescentis BgaC β-galactosidase” (Applied Microbiology and Biotechnology, 2021).

How the values were obtained:
[1] = molecular target: T1, BgaC β-galactosidase (BAD_1582) (Bifidobacterium adolescentis, UniProt A1A3T0); assay: purified enzyme; glucose-release kinetics (Km […]) and competitive inhibition of ONPG hydrolysis; assay type: biochemical
[2] = molecular target: T1, BgaC β-galactosidase (BAD_1582); assay: purified enzyme hydrolysis, specific activity, absorbance at […] nm; TLC; assay type: biochemical
purified protein = substrate: O=[N+]([O-])c1ccccc1O[C@@H]1O[C@H](CO)[C@H](O)[C@H](O)[C@H]1O; assay: purified protein; conditions: divalent metal ion (Mg2+ gives maximum activity) enzyme active site

## OC[C@H]1O[C@@H](O[C@H]2[C@H](O)[C@@H](O)C(O)O[C@@H]2CO)[C@H](O)[C@@H](O)[C@H]1O (stereo partly drawn) [lactose]
[1]
  Ki: 100 µM

## O=[N+]([O-])c1ccc(O[C@@H]2O[C@H](CO)[C@H](O)[C@H](O)[C@H]2O)cc1 [pNPG]
[2]
  purified enzyme hydrolysis, specific activity, absorbance at 420 nm; TLC: 112 µmol/min/mg

B1: BgaC β-galactosidase (BAD_1582) (Bifidobacterium adolescentis ATCC 15703) (protein)
chain: MADTAELAIVHATTASASWLTDPTVFAANRKPAHSSHRYVIGETREPKQSLDGEWKVRIEQARNVDVESAPFAAVDFEDGDFGAIEVPGHLQMAGYLKNKYVNIQYPWDGHEDPQAPNIPENNHVAIYRRRFALDAQLARTLENDGTVSLTFHGAATAIYVWLDGTFVGYGEDGFTPSEFDVTEALRNGNGNAADSPEAEHTLTVACYEYSSASWLEDQDFWRLHGLFRTVELAAQPHTHVETVQLEADYTAADTAGTADTAELNAALTLRNPADAMTIESTLRDGDGNVVWESTQACNGEIALNSGKMTNIAPWSAESPTLYTLTVRVVGHDGAIIETVTQKIGFRTFRIENGIMTINGKRIVFKGADRHEFDAKRGRAITREDMLSDVVFCKRHNINAIRTSHYPNQEYWYDLCDEYGLYLIDETNMETHGTWVANNVERPEDGIPGSRPEWEGACVDRINSMMRRDYNHPSVLIWSLGNESSAGEVFRAMYRHAHTIDPNRPVHYEGSVHMREFEDVTDIESRMYAHADEIERYLNDGSPAHTDGPKKPYISCEYMHAMGNSCGNMDEYTALERYPMYQGGFIWDFIDQAIETKLPDGTTRMCYGGDFGDRPSDYEFSGDGLLFADRTPSPKAQEVKQLYANVKIAVSVDEARITNDNLFVSTGDYRFVLRILADGKPVWSTTRRFDVAAGESASFEVDWPVDDYRSNAEELVLEVSQQLGNACDWAPAGYELAFGQCVVAGAKTTADAVDAAGAPADGTVTLGRWNAGVRGQGREALFSRTQGGMVSYTFGEREFVLRRPSITTFRPLTDNDRGAGHAFERAAWAVAGKYARCVDCAIANRGENAVEATYTYELAIPQRTKVTVRYVADTAGLVSLDVEYPGEKNGDLPTIPAFGIEWALPVEYANLRFYGAGPEETYADRRHAKLGVWSTTAGDDCAPYLLPQETGNHEDVRWAEITDDSGHGVRVKRGAGAKPFAMSLLPYSSTMLEEALHQDELPKPRHMFLRLLAAQMGVGGDDSWMSPVHEQYQLPADQPLSLNVQLKLF
Purified protein
  Km: 2.5 mM
